According to PubChem BioAssay AID1996:
In brackets after ≈: the same amount, converted by molar mass.

Settings: buffer; pH 7.4; 200.0 µM

SMILES	solubility kinetic
COc1ccccc1C(=O)NCCC(=O)NCCOc1ccccc1	> 51.4 µg/mL
OCCN(CCO)c1ccc2ccccc2c1	> 34.7 µg/mL
CCC(C)(NC=O)C(=O)Nc1c(C)cccc1C (stereo not drawn)	> 37.2 µg/mL
CCCCOc1ccc(C(=O)NN2CCOCC2)cc1	> 41.8 µg/mL
Cc1ccc(-c2nc3ccccc3c(=O)o2)cc1	1.2 µg/mL (≈ 5.06 µM)
COc1cc2c(cc1OC)CN(C(=O)Cn1ccccc1=O)CC2	> 49.3 µg/mL
CCCn1c(N)c(C(=O)CN2CCN(S(=O)(=O)c3cccc(Cl)c3)CC2)c(=O)[nH]c1=O	> 70.5 µg/mL
COC(=O)C1CN(C(=O)COc2ccc(C)cc2)c2ccccc2O1 (stereo not drawn)	49.1 µg/mL (≈ 144 µM)
CCCCCC(O)(CCN1CCCCC1)c1ccccc1.Cl (stereo not drawn)	> 48.9 µg/mL
CC1CN(S(=O)(=O)c2cc(C(=O)NCCCN3CCCC3=O)ccc2Cl)CC(C)O1 (stereo not drawn)	> 68.7 µg/mL
COC(=O)c1sc(-c2cccs2)cc1N	7.2 µg/mL (≈ 30.1 µM)
C[C@H](NC(N)=O)C(=O)Nc1ccc2c(c1)OCO2	32.9 µg/mL (≈ 131 µM)
CCn1cc(S(=O)(=O)Nc2ccc(C)c(Cl)c2)cn1	> 45 µg/mL
C=CCOc1ccc(/C=C/C(=O)OCC(=O)N2CCN(C(C)=O)CC2)cc1	> 55.9 µg/mL
COc1ccc(-c2c(NCCc3ccccc3)c(=O)c2=O)cc1	1 µg/mL (≈ 3.25 µM)
CC(NC(=O)COC(=O)c1ccccc1O)C1CC2CCC1C2 (stereo not drawn)	14.1 µg/mL (≈ 44.4 µM)
S=c1nccc(-c2ccc3c(c2)CCO3)[nH]1	14.8 µg/mL (≈ 64.3 µM)
O=S(=O)(c1cc(Cl)ccc1Cl)N1CCN2CCCC2C1 (stereo not drawn)	47.5 µg/mL (≈ 142 µM)
COc1ccccc1NC(=S)N(C(C)C)C(C)c1ccccn1 (stereo not drawn)	37.8 µg/mL (≈ 115 µM)
Cc1ccc(S(=O)(=O)N2CCN(c3ncnc4sccc34)CC2)cc1	17.5 µg/mL (≈ 46.7 µM)
CSc1nsc(SCC(=O)Nc2ccc(F)cc2F)n1	> 50 µg/mL
COc1ccc(NC(=O)c2ccc(S(=O)(=O)C(F)F)cc2)c(OC)c1	13.1 µg/mL (≈ 35.3 µM)
CP(=O)(O)CN1CCCCC1	24.9 µg/mL (≈ 141 µM)
Cc1cc(C)n2cc(CSc3ccc(Cl)cc3)nc2n1	> 45.6 µg/mL

SMILES	solubility kinetic
O=C(Cn1cnc2ccccc2c1=O)N1CCc2ccccc2C1	> 47.9 µg/mL
Cc1ccc(C23CC4CC(CC(C(=O)NCC(=O)O)(C4)C2)C3)cc1	> 49.1 µg/mL
CC(=O)c1cccc(NC(=O)CN(C)S(=O)(=O)c2ccccc2)c1	> 52 µg/mL
COc1ccc(-n2c(=S)[nH]c3sc4c(c3c2=O)CCc2ccccc2-4)cc1	1.4 µg/mL (≈ 3.57 µM)
O=C(CSc1ccsc1[N+](=O)[O-])NCc1ccccc1	9 µg/mL (≈ 29.2 µM)
CNC(=O)c1cc2cc(Cc3ccccc3Cl)ccc2oc1=O	< 0.7 µg/mL
NS(=O)(=O)c1cccc(NC(=O)c2ccno2)c1	> 40.1 µg/mL
O=C(NCCCNC(=O)c1ccccn1)c1ccc(F)cc1	> 45.2 µg/mL
COc1ccc(C(=O)Nc2ccc(C(=O)c3ccccc3)cc2)cc1	< 0.7 µg/mL
O=C(CSc1cc(Cl)ccc1Cl)NCCN1C(=O)CSC1=O	> 56.9 µg/mL
O=C(CN1CCOCC1)Nc1nc(-c2ccc(Cl)cc2)cs1	> 50.7 µg/mL
Cc1cccc(Cn2c(-c3ccc[nH]c3=O)nc3ccccc32)c1	36.7 µg/mL (≈ 116 µM)
Cc1cc(C)nc(Nc2nc(-c3ccccc3)cs2)n1	< 0.2 µg/mL
O=C(Cc1ccccc1)NCC(=O)N1CCc2ccccc2C1	> 46.3 µg/mL
c1ccc(NC2=NCCS2)cc1	23.5 µg/mL (≈ 132 µM)
CCc1cc(=O)[nH]c(SCc2cccc3ccccc23)n1	2.8 µg/mL (≈ 9.45 µM)
O=C(/C=C/c1ccncc1)c1ccc2c(c1)OCCO2	26.9 µg/mL (≈ 101 µM)
Cc1ccc(OCC(=O)OCC(=O)NC2CCCC2)cc1C	20 µg/mL (≈ 65.5 µM)
CCc1nnc(NC(=O)c2cc(Cl)ccn2)s1	> 40.3 µg/mL
CN(CC(=O)NCCc1ccc(S(N)(=O)=O)cc1)CC(=O)Nc1ccccc1C(F)(F)F	> 70.9 µg/mL
COC(=O)CC1=NN(c2nc3ccccc3s2)C(=O)/C1=C/N(C)C	> 51.7 µg/mL
O=C(Cc1c(F)cccc1Cl)Nc1cc(S(=O)(=O)N2CCOCC2)ccc1N1CCCC1	2 µg/mL (≈ 4.15 µM)
O=C(/C=C/c1c(Cl)nc2ccccn12)Nc1ccc(F)cc1	4.6 µg/mL (≈ 14.6 µM)
O=C(C1CC(=O)N(c2ccc(F)cc2)C1)N1CCOCC1 (stereo not drawn)	41.5 µg/mL (≈ 142 µM)

SMILES	solubility kinetic
O=C(CCCc1ccccc1)Nc1ccccn1	> 36 µg/mL
Cl.Clc1ccccc1CN1CCNCC1	> 37.1 µg/mL
CCCCOC(=O)C1=C(C)NC(=O)NC1c1ccccc1 (stereo not drawn)	13.5 µg/mL (≈ 46.8 µM)
Cc1cc2c(=O)n(C)c(SCC(=O)Nc3cccc(F)c3)nc2s1	< 0.3 µg/mL
Cc1cc(F)ccc1NC(=O)Nc1ccc2c(c1)OCO2	< 0.3 µg/mL
C/C(=C\C(=O)c1sccc1Cl)N(C)C	> 34.5 µg/mL
COc1ccc(S(=O)(=O)N(C)CC(=O)NCc2ccccn2)cc1	37.6 µg/mL (≈ 108 µM)
CNC(=O)C1CC(=O)N(CCc2ccc(C)cc2)C1 (stereo not drawn)	> 39.1 µg/mL
CCN(C(=O)COC(=O)c1ccc([N+](=O)[O-])o1)C1CCCCC1	> 48.6 µg/mL
COc1cccc(C(=O)NCc2ccc3[nH]c(C)cc3c2)c1	15.8 µg/mL (≈ 53.7 µM)
O=C(c1cc(F)cc2c1OCOC2)N1CCN(c2ccc(F)cc2)CC1	> 54.1 µg/mL
N#Cc1sc(C(N)=O)c(-c2ccccc2)c1-c1ccccc1	< 0.3 µg/mL
CCC(Oc1ccccc1OC)C(=O)N1CC(=O)Nc2ccccc21 (stereo not drawn)	43 µg/mL (≈ 126 µM)
Cc1cc(NC(=O)COC(=O)c2ccc(C)c(C)c2)no1	3.7 µg/mL (≈ 12.8 µM)
COCCCNc1ncnc2c1sc1nc(-c3ccco3)c3c(c12)CC(C)(C)OC3	1.3 µg/mL (≈ 3.06 µM)
CCc1nc(SCC(=O)OC)c2c3c(sc2n1)COC(C)(C)C3	7.4 µg/mL (≈ 21 µM)
Cc1cnc(C(=O)OCC(=O)C23CC4CC(CC(C4)C2)C3)cn1	> 47.2 µg/mL
CC(=O)N1CCc2ccc(S(=O)(=O)Nc3ccccc3Cl)cc21	39.2 µg/mL (≈ 112 µM)
Cc1ccc(NC(=O)CN2C(=O)N/C(=C\c3cccnc3)C2=O)cc1	5.2 µg/mL (≈ 15.5 µM)
Cc1cccc(C)c1NC(=O)c1cnccn1	24.8 µg/mL (≈ 109 µM)
Cc1cccc(NC2=CC(=O)CC(C)(C)C2)c1C	> 36.5 µg/mL
Cn1c(=O)c2c(=O)cc(N)[nH]c2n(C)c1=O	12.1 µg/mL (≈ 54.5 µM)
COc1ccc(Nc2nc(OC)nc(N3CCOCC3)n2)cc1	21.8 µg/mL (≈ 68.7 µM)
COc1ccc(NC(=O)N2CCCC2C(=O)NC2CCCC2)cc1 (stereo not drawn)	> 49.7 µg/mL

SMILES	solubility kinetic
CC(=O)c1ccc(S(=O)(=O)N(C)C(C)CCc2ccco2)cc1 (stereo not drawn)	31.8 µg/mL (≈ 94.8 µM)
Cc1cc(Oc2ncccc2[N+](=O)[O-])c2cc(Cl)ccc2n1	< 0.2 µg/mL
O=C(Nc1cccc(F)c1)NC1CCCc2ccccc21 (stereo not drawn)	2.1 µg/mL (≈ 7.39 µM)
CCOC(=O)C1=C(COC(=O)C2CC(=O)N(CCc3ccccc3)C2)NC(=O)NC1C (stereo not drawn)	> 64.4 µg/mL
Cc1ccc(-n2nc(C(=O)O)cc2-c2ccccc2Cl)cc1	> 46.9 µg/mL
Cc1ccc(C(=O)NC2(O)C(=O)c3ccccc3C2=O)cc1C	> 46.4 µg/mL
Cc1ccccc1-c1nc(C#N)c(N2CCCCC2)o1	1.8 µg/mL (≈ 6.73 µM)
O=C(NC1CCCc2ccccc21)c1ccc2c(c1)OCO2 (stereo not drawn)	11.6 µg/mL (≈ 39.3 µM)
COc1ccccc1Nc1nc(C)nc2c1oc1ccccc12.Cl	0.5 µg/mL
COc1ccc(NC(=O)O/N=C/c2ccncc2)cc1	> 40.7 µg/mL
COC(=O)c1cc2cc(Cl)ccc2nc1SC	< 0.6 µg/mL
CCOc1ccc(N(CC(=O)Nc2cccc(C)c2)S(C)(=O)=O)cc1	35.6 µg/mL (≈ 98.2 µM)
CCN(CC(=O)NC1CCS(=O)(=O)C1)S(=O)(=O)c1ccccc1Cl (stereo not drawn)	> 59.2 µg/mL
Cc1ccc(NC(=O)C2CCCCC2C(=O)O)cc1C (stereo not drawn)	40.4 µg/mL (≈ 147 µM)
CC(C)c1ccc(NC(=S)Nc2ccc3[nH]c(=O)[nH]c3c2)cc1	16.7 µg/mL (≈ 51.2 µM)
O/N=C/c1ccc2ccccc2n1	> 25.8 µg/mL
COc1ccc(-c2ccc(C(=O)O)c(=O)[nH]2)cc1	> 36.8 µg/mL
O=C(Cc1ccc(Br)cc1)NCCc1ccccc1	7.5 µg/mL (≈ 23.6 µM)
O=C(O)C1CCN(S(=O)(=O)c2ccc(Cl)s2)CC1	> 46.5 µg/mL
CN(C)CCNC(=O)Nc1ccc(F)cc1F	> 36.5 µg/mL
O=C(CN1C(=O)NC2(CCOc3ccccc32)C1=O)N1CCCCC1 (stereo not drawn)	> 51.5 µg/mL
O=C(NCCCn1ccnc1)/C(=C/c1ccco1)NC(=O)c1ccco1	> 53.2 µg/mL
Cn1cc(/C=C2\SC(=O)N(c3ccc(O)cc3)C2=O)c2ccccc21	< 0.4 µg/mL
COc1ccc(NC2=CC(=O)CC(C)(C)C2)cc1	> 36.8 µg/mL

SMILES	solubility kinetic
C/C(=N\Nc1nc(C)cc(C)n1)c1ccc(N2CCOCC2)cc1	> 48.8 µg/mL
Cc1cc(SCc2cccc(C(F)(F)F)c2)nc(=O)[nH]1	26.9 µg/mL (≈ 89.6 µM)
CCn1c(=O)c2c(nc(SCC(=O)N3CCC(C)CC3)n2C)n(C)c1=O	> 56.9 µg/mL
CN(c1ccccc1)c1nc(N)c([N+](=O)[O-])c(N2CCCC2)n1	20.9 µg/mL (≈ 66.5 µM)
CC(C)CN1CCN(Cc2cccc3cccnc23)CC1CCO (stereo not drawn)	37.1 µg/mL (≈ 113 µM)
CC1C2(C)OCC(C#N)(C(=N)O2)C1(C#N)C#N (stereo not drawn)	> 34.5 µg/mL
CCOC(=O)c1sc(NC(=O)C2CC(=O)N(c3ccc(C)cc3)C2)nc1C (stereo not drawn)	13 µg/mL (≈ 33.6 µM)
Cc1onc(-c2ccccc2)c1C(=O)Nc1ccc(Cl)cn1	3.1 µg/mL (≈ 9.88 µM)
COC(=O)c1c(NC(=O)CCCC(=O)O)sc2c1CCCCC2	> 50.9 µg/mL
COc1ccccc1CNC(=O)CN1C(=O)NC2(CCOc3ccccc32)C1=O (stereo not drawn)	7.9 µg/mL (≈ 20 µM)
Cc1cccc(C)c1NC(=O)CN(C1CCCCC1)S(C)(=O)=O	> 50.8 µg/mL
COC(=O)c1ccc(C(=O)OC)c(NC(=O)CSCC(=O)O)c1	> 51.2 µg/mL
Cc1ccc(C2SCC(=O)N2Cc2ccccc2)cc1 (stereo not drawn)	21.9 µg/mL (≈ 77.3 µM)
Cc1cc(C(=O)NC2CCCc3ccccc32)ccc1[N+](=O)[O-] (stereo not drawn)	10.3 µg/mL (≈ 33.2 µM)
O=C(Nc1ccc(F)cc1F)NC1CCN(Cc2c(F)cccc2Cl)CC1	5 µg/mL (≈ 12.6 µM)
O=S(=O)(Nc1ncccn1)c1ccc(Cl)cc1	40.1 µg/mL (≈ 149 µM)
Cc1ccc(C(C)NC(=S)NC2CCCCC2)cc1C (stereo not drawn)	7.8 µg/mL (≈ 26.9 µM)
COc1ccc(OC)c(Nc2nc(NCCC(C)C)nc(N)c2[N+](=O)[O-])c1	< 0.1 µg/mL
S=C1NCN(Cc2ccco2)CN1Cc1ccco1	40.3 µg/mL (≈ 145 µM)
Cc1ccc(/C([O-])=C(/C(=S)NCc2ccccc2)[n+]2ccccc2)cc1[N+](=O)[O-]	12 µg/mL (≈ 29.6 µM)
O=C1/C(=C/c2cccc([N+](=O)[O-])c2)CSc2ccc(Cl)cc21	< 0.7 µg/mL
COCCNc1nc(-c2ccccc2)nc2ccccc12.Cl	> 47.4 µg/mL
